Data reported in patent US10918645B2 (LIFEARC, priority 2016, dated 2021).

Legend:
LRRK2 G2019S = LRRK2 G2019S (Homo sapiens (Human), UniProt Q5S007, G2019S); test: Adapta Kinase Assay (LRRK2_IC50 assay); type: biochemical; conditions: inhibition of LRRK2 G2019S
Method: In Adapta™ Kinase Assay (LRRK2_IC50 assay): the Kinase Reaction Buffer contained 5× Kinase Buffer S (Life Technologies, PV5213) and 2 mM DTT (Life Technologies, P2325).
The Adapta® universal kinase assay is a homogenous, fluorescent based immunoassay for the detection of ADP. In contrast to ATP depletion assays, the Adapta® assay is extremely sensitive to ADP formation such that a majority of the signal change occurs in the first 10-20% conversion of ATP to ADP. This makes the Adapta® universal kinase assay ideally suited for use with low activity kinases.
Prepare a 1× solution of kinase reaction buffer from the 5× Kinase Buffer S stock (listed above) by adding 2 ml of 5× stock to 8 ml of H2O to make 10 ml of 1× kinase reaction buffer. To this, add 20 μl of 1 M DTT.
Kinase reactions are performed in a 10 μl volume in low-volume 384-well plates. […] Other non—treated assay plates, while not tested, may also be suitable. The concentration of substrate in the assay is 100 μM, and the 1× kinase reaction buffer consists of 50 mM Tris-HCl pH8.5, 10 mM MgCl2, 1 mM EGTA, 0.01% Brij-35, and 2 mM DTT, plus any additional additives that may be required for a specific kinase. […] The plate is allowed to equilibrate at room temperature for at least 30 minutes before being read on a plate reader configured for Adapta™ TR-FRET.
The data presented in this document were generated using a BMG LABTECH PHERAstar plate reader using the appropriate filters and instrument settings for Adapta™. The Test Compounds are screened in 1% DMSO (final) in the well. For 8 point titrations, 5-fold serial dilutions are conducted from the starting concentration.
(§1) IC50 estimates were obtained using the software XLfit (IDBS Inc.).

JAK2 = JAK2 (Homo sapiens (Human), UniProt O60674); test: LANCE Kinase Assay (JAK2_IC50 selectivity assay); type: biochemical
Excerpt: In LANCE® Kinase Assay (JAK2_IC50 selectivity assay): JAK2 (Invitrogen, Cat. No PV4288), ATP (Sigma, Cat. No. A7699-1G), DMSO (Sigma, Cat. No. D2650), DTT (Sigma, Cat. No. 43815), LANCE Ultra ULight™-JAK-1 peptide (Perkin Elmer, Cat. No. TRF0121), LANCE Eu-W1024 Anti-phosphotyrosine (PT66) (Perkin Elmer, Cat. No. AD0069), LANCE™ Detection Buffer (Perkin Elmer, Cat. No. CR97-100), Tofacitinib (PharmaBlock Sciences(Nanjing), Inc, Cat. No. PBN2011586-01); Equipments: Envision (Perkin Elmer), Bravo (Agilent); Consumables: 384 well Intermediate plate (Greiner, Cat. No. 781280), 384 well assay plate (Perkin Elmer, Cat. No. 6007299),
The assay involves two steps, the enzymatic step and the detection step with HTRF reagents. Step 1: During the enzymatic step the substrate-biotin is incubated with the kinase of interest. ATP is added to start the reaction. Step 2: The detection reagent catches the phosphorylated substrate and the resulting TR-FRET is proportional to the phosphorylation level.
Compound Preparation: Dissolve the test compounds into 30 mM DMSO solution and put them in nitrogen hood at room temperature for long term storage; Dilute the 30 mM compound in DMSO with 3-fold factor, total 11 concentrations; Aspirate 1 μl compound and then dilute them in 25 folds with kinase buffer. Mix well and balance 30 minutes at room temperature.
Kinase Reaction: Transfer 2.5 μl compounds in kinase buffer (4×) into assay plate by Agilent Bravo. Spin the plate; Transfer 5 μl enzyme mixture into the assay plate by using Eppendorf electronic multi-channel pipette. Spin the plate; Incubate the assay plate for 20 minutes at room temperature (23° C.); Add 2.5 μl kinase buffer with ATP into the assay plate by using Multidrop. Spin and seal the plate; Incubate the assay plate for 90 minutes at room temperature (23° C.).
Stop Reaction: Transfer 10 μl detection reagent (2 nM LANCE Eu-W1024 Anti-phosphotyrosine) into the assay plate by using Eppendorf electronic multi-channel pipette. Spin and seal the plate; Incubate the assay plate at room temperature (23° C.) for 60 minutes.
Detection and Read: The excitation wavelength is 340 nm, the primary emission wavelength is 615 nm and the secondary emission wavelength is 665 nm (for Cryptate and Ulight, respectively). Read the plate with EnVision to get the readout of both wavelengths; Calculate the ratio of 665 nm/615 nm.
as §1

JAK2, sequence (O60674 whole entry): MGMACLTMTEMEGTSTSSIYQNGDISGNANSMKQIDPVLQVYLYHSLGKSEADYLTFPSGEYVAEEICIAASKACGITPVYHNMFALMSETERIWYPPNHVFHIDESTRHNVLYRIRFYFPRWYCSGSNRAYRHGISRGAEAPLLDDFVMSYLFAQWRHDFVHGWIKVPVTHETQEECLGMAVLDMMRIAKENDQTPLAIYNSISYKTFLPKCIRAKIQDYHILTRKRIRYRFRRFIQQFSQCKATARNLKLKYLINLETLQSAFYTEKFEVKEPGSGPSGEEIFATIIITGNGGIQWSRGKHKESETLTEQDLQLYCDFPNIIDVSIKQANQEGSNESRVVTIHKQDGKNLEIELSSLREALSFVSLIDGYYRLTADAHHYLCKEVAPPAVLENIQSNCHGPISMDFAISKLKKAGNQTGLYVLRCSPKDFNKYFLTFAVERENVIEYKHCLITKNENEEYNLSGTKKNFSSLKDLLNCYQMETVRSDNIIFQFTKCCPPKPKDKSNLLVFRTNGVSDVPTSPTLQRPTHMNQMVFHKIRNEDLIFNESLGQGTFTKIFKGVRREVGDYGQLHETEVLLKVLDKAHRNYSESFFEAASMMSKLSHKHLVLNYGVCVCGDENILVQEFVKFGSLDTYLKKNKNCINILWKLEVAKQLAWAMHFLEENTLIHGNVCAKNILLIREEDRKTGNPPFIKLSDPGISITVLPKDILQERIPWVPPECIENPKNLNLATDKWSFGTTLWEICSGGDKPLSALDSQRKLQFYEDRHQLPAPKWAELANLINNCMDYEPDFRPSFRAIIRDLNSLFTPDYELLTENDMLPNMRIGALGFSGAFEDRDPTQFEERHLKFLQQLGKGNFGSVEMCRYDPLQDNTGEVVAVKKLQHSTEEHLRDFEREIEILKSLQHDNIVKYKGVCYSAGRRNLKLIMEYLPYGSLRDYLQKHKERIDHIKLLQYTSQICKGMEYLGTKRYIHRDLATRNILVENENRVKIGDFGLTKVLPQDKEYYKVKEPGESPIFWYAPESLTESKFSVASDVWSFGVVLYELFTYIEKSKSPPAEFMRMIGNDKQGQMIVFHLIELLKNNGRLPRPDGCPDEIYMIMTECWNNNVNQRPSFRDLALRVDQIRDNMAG
LRRK2 G2019S, sequence (Q5S007 970-2527 G2019S): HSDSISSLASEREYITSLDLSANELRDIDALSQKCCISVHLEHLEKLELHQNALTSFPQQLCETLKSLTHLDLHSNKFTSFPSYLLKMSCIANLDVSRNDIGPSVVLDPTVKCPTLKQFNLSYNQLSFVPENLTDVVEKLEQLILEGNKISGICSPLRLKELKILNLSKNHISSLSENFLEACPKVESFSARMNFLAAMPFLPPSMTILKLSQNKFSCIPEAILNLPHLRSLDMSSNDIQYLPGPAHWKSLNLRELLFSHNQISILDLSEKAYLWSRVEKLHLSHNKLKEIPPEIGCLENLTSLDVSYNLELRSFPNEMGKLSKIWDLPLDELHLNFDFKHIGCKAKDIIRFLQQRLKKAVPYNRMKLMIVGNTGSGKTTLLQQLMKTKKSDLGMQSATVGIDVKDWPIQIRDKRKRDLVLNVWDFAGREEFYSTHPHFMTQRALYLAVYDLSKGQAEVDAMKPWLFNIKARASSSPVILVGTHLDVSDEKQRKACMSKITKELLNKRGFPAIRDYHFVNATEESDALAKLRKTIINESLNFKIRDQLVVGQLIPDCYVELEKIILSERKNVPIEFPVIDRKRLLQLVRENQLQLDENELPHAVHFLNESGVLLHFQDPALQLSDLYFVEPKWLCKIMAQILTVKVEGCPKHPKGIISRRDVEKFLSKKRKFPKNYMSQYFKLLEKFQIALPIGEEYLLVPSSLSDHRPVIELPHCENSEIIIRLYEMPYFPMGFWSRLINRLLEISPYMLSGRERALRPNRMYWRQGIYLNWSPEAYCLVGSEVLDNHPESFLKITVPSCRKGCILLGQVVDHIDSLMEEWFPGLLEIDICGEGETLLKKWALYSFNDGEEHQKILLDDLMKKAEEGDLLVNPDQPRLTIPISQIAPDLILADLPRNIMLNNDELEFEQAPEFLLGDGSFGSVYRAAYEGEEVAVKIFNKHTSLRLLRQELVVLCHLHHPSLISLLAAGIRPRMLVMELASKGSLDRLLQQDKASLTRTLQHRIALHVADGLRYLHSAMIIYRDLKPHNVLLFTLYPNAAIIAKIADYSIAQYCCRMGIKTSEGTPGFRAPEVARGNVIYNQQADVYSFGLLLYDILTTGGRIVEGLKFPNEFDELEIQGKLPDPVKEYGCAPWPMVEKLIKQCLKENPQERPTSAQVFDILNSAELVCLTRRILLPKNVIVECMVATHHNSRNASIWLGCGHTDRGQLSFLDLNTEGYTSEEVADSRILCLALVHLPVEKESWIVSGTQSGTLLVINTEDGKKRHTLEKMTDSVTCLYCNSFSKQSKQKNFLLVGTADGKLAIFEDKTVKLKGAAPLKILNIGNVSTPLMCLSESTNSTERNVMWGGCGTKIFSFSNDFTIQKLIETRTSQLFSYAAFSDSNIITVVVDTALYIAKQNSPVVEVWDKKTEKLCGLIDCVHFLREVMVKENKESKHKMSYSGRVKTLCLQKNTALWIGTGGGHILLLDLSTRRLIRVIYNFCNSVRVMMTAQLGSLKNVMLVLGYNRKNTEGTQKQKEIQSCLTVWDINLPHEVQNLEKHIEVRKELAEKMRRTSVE

In the case of “4-cyclopropyl-5,11-dihydro-4H-3,4,10,11-tetraazadibenzo[cd,h]azulene [Example 47]”, the IC50 (LRRK2 G2019S) is reported as 54 nM and the IC50 (JAK2) is reported as 2200 nM.

CN1CCCc2n[nH]c3ccnc1c23 [Example 16, 6-methyl-6,7,8,9-tetrahydro-2H-1,2,5,6-tetraazabenzo[cd]azulene] was tested, and the IC50 (LRRK2 G2019S) was 3000 nM.

“4-cyclopropyl-4,11-dihydro-5H-3,4,10,11-tetraazadibenzo[cd,h]azulen-5-one [Example 33]” gave an IC50 (LRRK2 G2019S) of 30 nM.

CCN1CCN(C2CCOCC2)c2nccc3[nH]nc1c23 [Example 94, 9-ethyl-6-(tetrahydro-2H-pyran-4-yl)-6,7,8,9-tetrahydro-2H-1,2,5,6,9-pentaazabenzo[cd]azulene] showed an IC50 (LRRK2 G2019S) of 820 nM.

For Cn1ncc2c1C(=O)N(C1CCOCC1)c1nccc3[nH]nc-2c13 [Example 67, 1-methyl-9-(tetrahydro-2H-pyran-4-yl)-5,9-dihydro-1,2,4,5,8,9-hexaazabenzo[cd]cyclopenta[h]azulen-10(1H)-one], the IC50 (LRRK2 G2019S) was 7 nM.

CN1Cc2ccccc2-c2n[nH]c3ccnc1c23 [Example 45, 4-methyl-5,11-dihydro-4H-3,4,10,11-tetraazadibenzo[cd,h]azulene] showed an IC50 (LRRK2 G2019S) of 71 nM and an IC50 (JAK2) of 2100 nM.

“4-(tetrahydro-2H-pyran-4-yl)-8-(trifluoromethyl)-5,11-dihydro-4H-3,4,7,10,11-pentaazadibenzo[cd,h]azulene [Example 89]” was tested, and the IC50 (LRRK2 G2019S) was 49 nM and the IC50 (JAK2) was 23000 nM.

OCCN1CCCc2n[nH]c3ccnc1c23 [Example 28, 2-(2,7,8,9-tetrahydro-6H-1,2,5,6-tetraazabenzo[cd]azulen-6-yl)ethan-1-ol] showed an IC50 (LRRK2 G2019S) of 570 nM.

For CC(C)n1cc2c(n1)CN(C1CCN(C)CC1)c1nccc3[nH]nc-2c13 [Example 81, 2-isopropyl-9-(1-methylpiperidin-4-yl)-2,5,9,10-tetrahydro-1,2,4,5,8,9-hexaazabenzo[cd]cyclopenta[h]azulene], the IC50 (LRRK2 G2019S) was 40 nM and the IC50 (JAK2) was 4600 nM.

Cn1cc2c(n1)CN(C1CCOCC1)c1nccc3[nH]nc-2c13 [Example 70, 2-methyl-9-(tetrahydro-2H-pyran-4-yl)-2,5,9,10-tetrahydro-1,2,4,5,8,9-hexaazabenzo[cd]cyclopenta[h]azulene] was tested, and the IC50 (LRRK2 G2019S) was 23 nM.

CC(C)N1CCC(N2Cc3nn(C(C)C)cc3-c3n[nH]c4ccnc2c34)CC1 [Example 88, 2-isopropyl-9-(1-isopropylpiperidin-4-yl)-2,5,9,10-tetrahydro-1,2,4,5,8,9-hexaazabenzo[cd]cyclopenta[h]azulene] was tested, and the IC50 (LRRK2 G2019S) was 31 nM and the IC50 (JAK2) was 5400 nM.

For CC(C)n1cc2c(n1)CN(C1CCOCC1)c1nccc3[nH]nc-2c13 [Example 74, 2-isopropyl-9-(tetrahydro-2H-pyran-4-yl)-2,5,9,10-tetrahydro-1,2,4,5,8,9-hexaazabenzo[cd]cyclopenta[h]azulene], the IC50 (LRRK2 G2019S) was 50 nM and the IC50 (JAK2) was 2400 nM.

Molecule c1ccc2c(c1)CN(C1CCCC1)c1nccc3[nH]nc-2c13 [Example 52] has an IC50 (LRRK2 G2019S) of 33 nM.

For CC(C)N1CCC(N2Cc3nn(C)cc3-c3n[nH]c4ccnc2c34)CC1 [Example 82, 9-(1-isopropylpiperidin-4-yl)-2-methyl-2,5,9,10-tetrahydro-1,2,4,5,8,9-hexaazabenzo[cd]cyclopenta[h]azulene], the IC50 (LRRK2 G2019S) was 39 nM.

CC(C)N1CCC(N2C(=O)c3ccccc3-c3n[nH]c4ccnc2c34)CC1 [Example 42] showed an IC50 (LRRK2 G2019S) of 31 nM.

For CN1CCC(N2CCCc3n[nH]c4ccnc2c34)CC1 [Example 26, 6-(1-methylpiperidin-4-yl)-6,7,8,9-tetrahydro-2H-1,2,5,6-tetraazabenzo[cd]azulene], the IC50 (LRRK2 G2019S) was 91 nM.

For c1ccc(N2Cc3ccccc3-c3n[nH]c4ccnc2c34)cc1 [Example 53], the IC50 (LRRK2 G2019S) was 33 nM.

In the case of “4-isobutyl-5,11-dihydro-4H-3,4,10,11-tetraazadibenzo[cd,h]azulene [Example 49]”, the IC50 (LRRK2 G2019S) is reported as 67 nM.

Work on “4-cyclobutyl-5,11-dihydro-4H-3,4,10,11-tetraazadibenzo[cd,h]azulene [Example 51]” yielded an IC50 (LRRK2 G2019S) of 39 nM and an IC50 (JAK2) of 580 nM.

CC(C)N1CCC(N2Cc3ccccc3-c3n[nH]c4ccnc2c34)CC1 [Example 56] showed an IC50 (LRRK2 G2019S) of 58 nM and an IC50 (JAK2) of 4800 nM.

Molecule “4-ethyl-4,11-dihydro-5H-3,4,10,11-tetraazadibenzo[cd,h]azulen-5-one [Example 32]” has an IC50 (LRRK2 G2019S) of 34 nM.

Work on “4-isopropyl-4,11-dihydro-5H-3,4,10,11-tetraazadibenzo[cd,h]azulen-5-one [Example 34]” yielded an IC50 (LRRK2 G2019S) of 41 nM.

CC(C)N1CCCc2n[nH]c3ccnc1c23 [Example 19, 6-isopropyl-6,7,8,9-tetrahydro-2H-1,2,5,6-tetraazabenzo[cd]azulene] showed an IC50 (LRRK2 G2019S) of 230 nM and an IC50 (JAK2) of 3100 nM.

“4-isopropyl-5,11-dihydro-4H-3,4,10,11-tetraazadibenzo[cd,h]azulene [Example 48]” gave an IC50 (LRRK2 G2019S) of 68 nM and an IC50 (JAK2) of 550 nM.

Work on “2-(5,11-dihydro-4H-3,4,10,11-tetraazadibenzo[cd,h]azulen-4-yl)ethan-1-ol [Example 57]” yielded an IC50 (LRRK2 G2019S) of 260 nM.

“4-(sec-butyl)-5,11-dihydro-4H-3,4,10,11-tetraazadibenzo[cd,h]azulene [Example 50]” gave an IC50 (LRRK2 G2019S) of 120 nM.

With “4-isopropyl-4,11-dihydro-5H-3,4,10,11-tetraazadibenzo[cd,h]azulen-5-one [Example 35]” the IC50 (LRRK2 G2019S) was 75 nM.

Molecule O=C1c2n[nH]cc2-c2n[nH]c3ccnc(c23)N1C1CCOCC1 [Example 65, 9-(tetrahydro-2H-pyran-4-yl)-5,9-dihydro-1,2,4,5,8,9-hexaazabenzo[cd]cyclopenta[h]azulen-10(2H)-one] has an IC50 (LRRK2 G2019S) of 4 nM.

CC(C)CN1CCCc2n[nH]c3ccnc1c23 [Example 20, 6-isobutyl-6,7,8,9-tetrahydro-2H-1,2,5,6-tetraazabenzo[cd]azulene] showed an IC50 (LRRK2 G2019S) of 450 nM.

With CCn1cc2c(n1)CN(C1CCN(C(C)C)CC1)c1nccc3[nH]nc-2c13 [Example 86, 2-ethyl-9-(1-isopropylpiperidin-4-yl)-2,5,9,10-tetrahydro-1,2,4,5,8,9-hexaazabenzo[cd]cyclopenta[h]azulene] the IC50 (LRRK2 G2019S) was 29 nM and the IC50 (JAK2) was 3000 nM.

Cn1cc2c(n1)C(=O)N(C1CCOCC1)c1nccc3[nH]nc-2c13 [Example 66, 2-methyl-9-(tetrahydro-2H-pyran-4-yl)-5,9-dihydro-1,2,4,5,8,9-hexaazabenzo[cd]cyclopenta[h]azulen-10(2H)-one] was tested, and the IC50 (LRRK2 G2019S) was 26 nM.

Molecule CC1Cc2n[nH]c3ccnc(c23)N(C2CCOCC2)C1 (stereo not drawn) [Example 30, 8-methyl-6-(tetrahydro-2H-pyran-4-yl)-6,7,8,9-tetrahydro-2H-1,2,5,6-tetraazabenzo[cd]azulene] has an IC50 (LRRK2 G2019S) of 250 nM.

With CN1CCN(C2CCOCC2)c2nccc3[nH]nc1c23 [Example 93, 9-methyl-6-(tetrahydro-2H-pyran-4-yl)-6,7,8,9-tetrahydro-2H-1,2,5,6,9-pentaazabenzo[cd]azulene] the IC50 (LRRK2 G2019S) was 170 nM and the IC50 (JAK2) was > 30000 nM.

Work on “4-cyclobutyl-4,11-dihydro-5H-3,4,10,11-tetraazadibenzo[cd,h]azulen-5-one [Example 37]” yielded an IC50 (LRRK2 G2019S) of 20 nM.

With CCn1cc2c(n1)CN(C1CCOCC1)c1nccc3[nH]nc-2c13 [Example 72, 2-ethyl-9-(tetrahydro-2H-pyran-4-yl)-2,5,9,10-tetrahydro-1,2,4,5,8,9-hexaazabenzo[cd]cyclopenta[h]azulene] the IC50 (LRRK2 G2019S) was 15 nM and the IC50 (JAK2) was 660 nM.
